Experimental findings from ChEMBL document CHEMBL5244275, “Geminal Diheteroatomic Motifs: Some Applications of Acetals, Ketals, and Their Sulfur and Nitrogen Homologues in Medicinal Chemistry and Drug Design” (J Med Chem, 2021) are described below.

Values after ≈ are worked out from the molar mass of the structure shown. Numbered stars: 1 amine (or outer) side, 2 acyl side, 3 side chain; on linkers, the order of the positions; unused ones are H or OH. Bridge positions count the residues as written; N and C are the ends. Square brackets hold non-standard residues; d marks the D form. Peptide text beside a SMILES is read from it. * marks the point of attachment. Orn(4R-OH,5R-OH) = O=C([C@H](C[C@@H](O)[C@@H](O)N[*:3])N[*:1])[*:2]; Tetradecanoyl(10R,12S-Me2) = CC[C@H](C)C[C@H](C)CCCCCCCCC(=O)*; hTyr(3S-OH,4S-OH) = N[C@H](C(=O)O)[C@H](O)[C@@H](O)c1ccc(O)cc1; Gln(3R-OH) = NC(=O)C[C@@H](O)[C@H](N)C(=O)O; Pro(3S-OH) = O=C(O)[C@H]1NCC[C@@H]1O; Hyp = O=C(O)[C@@H]1C[C@@H](O)CN1 Bounds are passed on as bounds.

As usually defined, the IC50 is the concentration that gives 50% inhibition. For orientation: EC50 means the midpoint of the concentration-response curve. A word on the pKa: it is the negative logarithm of the acid dissociation constant. Higher therefore signals a group that holds its proton tightly. For orientation: MFC means the smallest concentration meeting the test's criterion for killing the fungus. The bioavailability is dose-corrected exposure relative to a reference, in per cent. The low end stands for little systemic uptake, the high end for much systemic uptake. The term solubility denotes the concentration that dissolves in the medium under given conditions. A high value points to a readily soluble substance. One may read the inhibition as the change of the read-out against control, counted positive when it falls. A higher inhibition goes with a response far below the control.

Data set [1] can be described thus: Stability of the compound in 1M HCL buffer assessed as drug degradation by measuring rate constant by FRET-based assay. In kind it is physicochemical.
In data set [2] the target is Human immunodeficiency virus type 1 protease (Human immunodeficiency virus 1, UniProt Q72874). Nature of the data set: Inhibition of HIV-1 protease.
Data set [3] in a line: Stability of the compound in 20% aqueous dioxane solution at 30 degreeC assessed as compound hydrolysis by measuring rate constant. In kind it is physicochemical. The note with it: buffer.
The nature of data set [4]: Aqueous stability of the compound assessed as acid-catalyzed decomposition by measuring rate constant. Type of data set: physicochemical. The note with it: buffer.
Data set [5] can be described thus: Inhibition of Leukotriene B4 production in human blood Polymorphonuclear neutrophil cells. Type of data set: functional, tissue-based.
In data set [6] the test system is Hepatitis C virus. Nature of the data set: Antiviral activity against Hepatitis C virus genotype 1a harboring NS5A Y93H mutant. Type of data set: functional, organism-based, Hepacivirus hominis.
Data set [7] is described as follows: Dissociation constant, pKa of the compound. Type of data set: physicochemical.
The nature of data set [8]: Inhibition of Calcium channel (unknown origin). Also on record: species or system Homo sapiens.
Data set [9] deals with Candida albicans. The experiment in a line: Antifungal activity against Candida albicans GS. Type of data set: functional, organism-based.
Data set [10] has as its system Candida albicans. Nature of the data set: Fungicidal activity against Candida albicans. In kind it is functional.
Data set [11] is described as follows: Oral bioavailability in rat. In kind it is ADME, organism-based. As to conditions: in vivo.
Data set [12] can be described thus: Aqueous solubility of compound. Type of data set: physicochemical. The note with it: aqueous (not further specified).
Data set [13] in a line: Oral bioavailability in human. In kind it is ADME, organism-based. As to conditions: in vivo.
Data set [14] relates to Escherichia coli. Nature of the data set: Inhibition of Escherichia coli beta-lactamase at 1 uM relative to control.

Regarding `COc1cc(/N=N/c2ccc([N+](=O)[O-])cc2)c(OC)cc1/N=N/c1ccc(N(C)CCCC(=O)NCCSC2CC(=O)N(CC3OCC(C(=O)NCCCNC(=O)c4ccc(C(=O)[O-])c(-c5c6ccc(=[N+](C)C)cc-6oc6cc(N(C)C)ccc56)c4)O3)C2=O)cc1` (configuration not stated), the K in [1] is given as 1.59 10^-6/s.

`CC(C)(C)NC(=O)[C@@H]1C[C@@H]2CCCC[C@@H]2CN1C[C@@H](O)[C@H](Cc1ccccc1)NC(=O)O[C@H]1CC[C@H]2OCC[C@@H]12`: the midpoint of inhibition in data set [2], the IC50, lay at 17 nM.

For `c1ccc(C2(c3ccccc3)OCCO2)cc1`, the K in [3] was 3.6 10^-2/M/s.

For the molecule `c1ccc(C2OCCS2)cc1` (configuration not stated), the K in data set [4] came out at 0.0194 min⁻¹.

Take `Cc1ccc(C2OCCS2)cc1` (configuration not stated): the K in [4] is 0.146 min⁻¹.

Turning to `COc1cc(/N=N/c2ccc([N+](=O)[O-])cc2)c(OC)cc1/N=N/c1ccc(N(C)CCCC(=O)NCCSC2CC(=O)N(CCC3OCC(C(=O)NCCCNC(=O)c4ccc(-c5c6ccc(=[N+](C)C)cc-6oc6cc(N(C)C)ccc56)c(C(=O)[O-])c4)CO3)C2=O)cc1` (configuration not stated), in [1], the K is 2.28 10^-6/s.

Take `O=C1OCc2c1cc1cc(OCc3cccc(C4(O)CC5CCC(C4)O5)c3)ccc1c2-c1ccccc1` (configuration not stated): half-maximal inhibition in data set [5] (IC50) was put at 8 nM.

As for `CC(C)CN(C[C@@H](O)[C@H](Cc1ccccc1)NC(=O)O[C@H]1C2CO[C@H]3OCC1C3C2)S(=O)(=O)c1ccc2oc(NC3CC3)nc2c1` (some centres not stated), the IC50 in [2] is 0.26 nM.

As to `COC(=O)N[C@H](C(=O)N1CCC[C@H]1c1ncc(-c2ccc3c(c2)CCn2c-3cc3cc(-c4cnc([C@@H]5CCCN5C(=O)[C@@H](NC(=O)OC)C(C)C)[nH]4)ccc32)[nH]1)C(C)C`, in data set [6], the half-maximal effective concentration (EC50) came out at 170 nM.

Consider `COc1cc(/N=N/c2ccc([N+](=O)[O-])cc2)c(OC)cc1/N=N/c1ccc(N(C)CCCC(=O)NCCSC2CC(=O)N(CC3CCC(C(=O)NCCCNC(=O)c4ccc(C(=O)[O-])c(-c5c6ccc(=[N+](C)C)cc-6oc6cc(N(C)C)ccc56)c4)CC3)C2=O)cc1` (configuration not stated), for which, in data set [1], the K is reported as 3.06 10^-7/s.

As for `Clc1ccc(C2OCCS2)cc1` (configuration not stated), in [4], the K was 0.00978 min⁻¹.

In [2], `CC(C)(C)NC(=O)[C@@H]1C[C@@H]2CCCC[C@@H]2CN1C[C@@H](O)[C@H](Cc1ccccc1)NC(=O)O[C@H]1CO[C@H]2CCC[C@H]21` gave an IC50 of 190 nM.

With `FC(F)(F)c1cc(CO[C@H]2CCCN[C@H]2c2ccccc2)cc(C(F)(F)F)c1`, the pKa in data set [7] came out at 8.3. Besides, the IC50 in data set [8] was determined as 780 nM.

For `C[C@@H](O[C@H]1OCCN(Cc2n[nH]c(=O)[nH]2)[C@H]1c1ccc(F)cc1)c1cc(C(F)(F)F)cc(C(F)(F)F)c1` [APREPITANT], in data set [8], the IC50 was above 1000 nM.

With `CC[C@H](C)C[C@H](C)CCCCCCCCC(=O)N[C@H]1C[C@@H](O)[C@@H](O)NC(=O)[C@@H]2[C@@H](O)CCN2C(=O)[C@H]([C@H](O)CC(N)=O)NC(=O)[C@H]([C@H](O)[C@@H](O)c2ccc(O)cc2)NC(=O)[C@@H]2C[C@@H](O)CN2C(=O)[C@H]([C@@H](C)O)NC1=O` ({Tetradecanoyl(10R,12S-Me2)}-[Orn(4R-OH,5R-OH)]T[Hyp][hTyr(3S-OH,4S-OH)][Gln(3R-OH)][Pro(3S-OH)]; lactam 1-C), the IC50 in [9] stood at 70 nM. The molecule also yielded an MFC in data set [10] of 0.25 µg/mL (≈ 0.235 µM).

`C1CCC2(CC1)OOC1(O2)C2CC3CC(C2)CC1C3` (configuration not stated) had a bioavailability in data set [11] below 1%. Moreover, the solubility in data set [12] was below 0.001 mg/mL.

Molecule `COC(=O)N[C@H](C(=O)N1CCC[C@H]1c1ncc(-c2cc(F)c3c(c2)O[C@@H](c2cnc(C4CC4)s2)n2c-3cc3cc(-c4cnc([C@@H]5CCCN5C(=O)[C@@H](NC(=O)OC)C(C)C)[nH]4)ccc32)[nH]1)C(C)C` [RUZASVIR] gave an EC50 in data set [6] of 0.06 nM. In other words, the picomolar range.

As for `COc1cc(/N=N/c2ccc([N+](=O)[O-])cc2)c(OC)cc1/N=N/c1ccc(N(C)CCCC(=O)NCCSC2CC(=O)N(CC3OCC(C(=O)NCCCNC(=O)c4ccc(C(=O)[O-])c(-c5c6ccc(=[N+](C)C)cc-6oc6cc(N(C)C)ccc56)c4)CO3)C2=O)cc1` (configuration not stated), the K in data set [1] is reported as 3.8 10^-7/s.

`CC(C)[C@H](N)C(=O)OCC(CO)OCn1cnc2c(=O)nc(N)[nH]c21` (some centres not stated) [VALGANCICLOVIR] registered a bioavailability in [13] of 65%. The concentration in solution in data set [12] (solubility) was 70 mg/mL (≈ 198000 µM).

As for `O=[N+]([O-])c1ccc(C2OCCS2)cc1` (configuration not stated), the K in data set [4] is 0.00048 min⁻¹.

`CC1(C)[C@H](C(=O)O)N2C(=O)/C(=C/c3ccccc3)[C@H]2S1(=O)=O`: the inhibition in [14] was 28%.

In data set [11], `O=C1CCC2(CC1)OOC1(O2)C2CC3CC(C2)CC1C3` (configuration not stated) showed a bioavailability below 1%. Besides, the solubility in data set [12] was below 0.001 mg/mL.
